Laboratory results as given in ChEMBL document CHEMBL1201862, “PubChem BioAssay data set” (2004).
Activity calls are given as the source filed them. No stated cut-off is given here; in the data, active = IC50 of 50 µM or less and inactive = more.

Molecular target: T1, Protein skinhead-1 (Caenorhabditis elegans, UniProt P34707)
T1 sequence (P34707 whole entry): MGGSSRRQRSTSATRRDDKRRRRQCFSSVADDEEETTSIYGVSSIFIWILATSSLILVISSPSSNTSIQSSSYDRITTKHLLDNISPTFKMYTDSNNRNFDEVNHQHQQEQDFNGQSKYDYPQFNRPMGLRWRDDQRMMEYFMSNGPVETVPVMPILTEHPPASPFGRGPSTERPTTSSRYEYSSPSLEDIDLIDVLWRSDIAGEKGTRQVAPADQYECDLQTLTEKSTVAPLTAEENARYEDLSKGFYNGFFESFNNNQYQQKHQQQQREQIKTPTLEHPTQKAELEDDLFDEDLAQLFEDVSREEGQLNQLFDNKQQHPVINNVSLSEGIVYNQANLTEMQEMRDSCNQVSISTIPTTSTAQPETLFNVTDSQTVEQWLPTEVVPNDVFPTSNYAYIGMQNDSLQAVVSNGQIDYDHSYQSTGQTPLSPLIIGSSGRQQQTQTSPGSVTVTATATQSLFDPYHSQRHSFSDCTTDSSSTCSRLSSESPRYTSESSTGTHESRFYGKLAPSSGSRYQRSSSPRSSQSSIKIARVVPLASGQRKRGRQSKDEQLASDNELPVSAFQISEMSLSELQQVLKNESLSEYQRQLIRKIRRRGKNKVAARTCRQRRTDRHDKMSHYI
Type: functional

O=C(/C=C/c1ccco1)Nc1ccc(Oc2ccccc2)cc1
IC50: > 100 µM (inactive)
